Assay results taken from US20090054435A1, “Phenoxyalkanoic Acid Compound” (priority 2005, published 2009).

Columns and labels:
PPAR γ-RXRα heterodimer = biological target: T1, PPAR γ-RXRα heterodimer (Homo sapiens, UniProt P37231); assay: PPAR γ-RXRα heterodimer ligand activity (luciferase reporter in PPAR γ:RXRα:4ERPP/CHO-K1 cells); format: cell-based
T1 construct: expressed in transfected cells; host or cells: CHO-K1 (PPAR γ:RXRα:4ERPP/CHO-K1)
T1 sequence (P37231 29-505 limits assumed): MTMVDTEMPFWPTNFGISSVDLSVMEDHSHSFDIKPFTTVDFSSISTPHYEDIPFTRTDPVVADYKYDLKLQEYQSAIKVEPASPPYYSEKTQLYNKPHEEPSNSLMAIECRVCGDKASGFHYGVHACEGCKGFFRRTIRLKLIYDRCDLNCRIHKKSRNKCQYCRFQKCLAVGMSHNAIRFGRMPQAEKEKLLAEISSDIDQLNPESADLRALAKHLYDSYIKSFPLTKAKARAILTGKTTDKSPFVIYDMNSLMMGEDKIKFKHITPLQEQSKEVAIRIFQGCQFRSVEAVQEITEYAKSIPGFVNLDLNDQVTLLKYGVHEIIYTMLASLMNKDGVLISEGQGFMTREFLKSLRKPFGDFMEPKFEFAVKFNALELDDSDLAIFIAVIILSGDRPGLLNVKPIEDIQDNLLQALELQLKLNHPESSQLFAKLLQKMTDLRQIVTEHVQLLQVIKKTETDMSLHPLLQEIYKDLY
T1 sequence (P19793 1-462 partner): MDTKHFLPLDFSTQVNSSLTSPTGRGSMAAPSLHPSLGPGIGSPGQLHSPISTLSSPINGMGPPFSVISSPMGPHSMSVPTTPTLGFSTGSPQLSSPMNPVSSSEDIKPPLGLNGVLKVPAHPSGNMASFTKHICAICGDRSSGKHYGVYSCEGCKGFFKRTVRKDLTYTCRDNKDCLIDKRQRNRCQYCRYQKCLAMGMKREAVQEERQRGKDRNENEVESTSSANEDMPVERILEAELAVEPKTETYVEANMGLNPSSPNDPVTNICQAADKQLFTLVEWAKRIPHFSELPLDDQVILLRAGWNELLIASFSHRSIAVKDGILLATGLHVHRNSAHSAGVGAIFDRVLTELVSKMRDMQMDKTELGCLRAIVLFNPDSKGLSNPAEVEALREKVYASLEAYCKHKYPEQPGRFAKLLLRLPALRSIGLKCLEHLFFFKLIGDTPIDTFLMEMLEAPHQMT
Protocol: The PPAR γ:RXRα:4ERPP/CHO-K1 cells described in WO03/099793 were cultured in a HamF12 medium [manufactured by Life Technologies, Inc., US] containing 10% calf fetal serum [manufactured by Life Technologies, Inc., US], sown in a 96-well white plate [manufactured by Corning Coster Corporation, US] at 2×10^4 cells/well, and incubated overnight in a carbon dioxide gas incubator at 37° C.
Then, the medium was removed from the 96 well white plate, 80 μl of HamF12 medium containing 0.1% fatty acid-free bovine serum albumin (BSA) and a test compound (20 μl) were added, and the cells were incubated for 18-24 hr in a carbon dioxide gas incubator at 37° C. The medium was removed, 40 μl of PicaGene7.5 (manufactured by Wako Pure Chemical Industries, Ltd.) 2-fold diluted with HBSS (HANKS' BALANCED SALT SOLUTION) [manufactured by BIO WHITTAKER, US] was added. After stirring, the luciferase activity was determined using the 1420 ARVO Multilabel Counter [manufactured by PerkinElmer, US].
The induction rate was calculated from the luciferase activity of each test compound based on the luciferase activity of the test compound non-administration group as 1. The test compound concentration and the induction rate were analyzed by PRISM [manufactured by GraphPad Software, Inc., US] to calculate EC50 value (compound concentration showing 50% of the maximum value of induction rate) of the test compound.
In addition, the luciferase activity induction magnification maximum value of each test compound relative to that of the 5-{4-[2-(5-methyl-2-phenyl-1,3-oxazol-4-yl)ethoxy]benzyl}-1,3-thiazolidin-2,4-dione (PPARγ full agonist) administration group as 100% was defined as Vmax and calculated.

KKAy mice = assay: Blood glucose and blood lipid (triglyceride) lowering action in mice; format: in vivo; details: 0.01% in powder diet, 6 days
Description: The test compound was mixed with a powder diet (CE-2, CLEA JAPAN, INC.) at a proportion of 0.01% (0.03% for the compound of Example 1) and freely given to KKAy mice (9 to 12-week-old, 5 mice per group) which are obese non-insulin-dependent diabetes (type-2 diabetes) models, for 6 days. During this period, water was freely given to the mice. The blood was drawn from the orbital venous plexus. Glucose and triglyceride in the plasma separated from the blood were quantitated using L Type Wako Glu2 (Wako Pure Chemical Industries, Ltd.) and L Type Wako TG·H (Wako Pure Chemical Industries, Ltd.), respectively, according to an enzyme method.

COc1ccc(C(=O)c2ccc(OCc3nc(-c4ccccc4)oc3C)cc2)c(O[C@H](C)C(=O)O)c1 [Example 53, (2R)-2-(5-methoxy-2-{4-[(5-methyl-2-phenyl-1,3-oxazol-4-yl)methoxy]benzoyl}phenoxy)propanoic acid]
EC50 (PPAR γ-RXRα heterodimer; compound concentration showing 50% of the maximum induction rate of luciferase activity, 18-24 hr incubation): 5.1 nM | Vmax (%) (PPAR γ-RXRα heterodimer; maximum luciferase induction relative to 5-{4-[2-(5-methyl-2-phenyl-1,3-oxazol-4-yl)ethoxy]benzyl}-1,3-thiazolidin-2,4-dione (PPARγ full agonist) as 100%): 60% | hypoglycemic action (%) (KKAy mice; decrease rate of blood glucose vs non-administration group (100%)): 46% | hypolipidemic action (%) (KKAy mice; decrease rate of blood triglyceride vs non-administration group (100%)): 12% | melting point: 169 to 170 °C
